Test results from patent publication US5348965A, “N-substituted azaheterocyclic carboxylic acids” (Novo Nordisk A/S, priority 1991, dated 1994).
Counter-ions that a name gives are not always drawn.

How the values were obtained:
[1] = system: GABA uptake; details: from the synaptic cleft into presynaptic nerve terminals and glial cells; cited from earlier work
[2] = system: [^3 H]-GABA uptake; test: in vitro inhibition of [^3 H]-GABA uptake (method of Fjalland); type: biochemical; details: Male wistar rat cortical tissue homogenate; tris HCl buffer pH 7.5; 60 minutes at 30° C.
Experimental: Values for in vitro inhibition of [^3 H]-GABA uptake for the invention compounds were assessed essentially by the method of Fjalland (Acta Pharmacol. Toxicol. 1978, 42, 73-76). Male wistar rat cortical tissue was gently homogenized by hand using a glass/PTFE homogenizer in 10 volumes of 0.32 M sucrose. Incubation was performed in a 40 mM tris HCl buffer (pH 7.5 at 30° C.) containing […], 4 mM MgSO4, […] and 10 mM glucose, for 60 minutes at 30° C. Values for inhibition of GABA uptake for some representative compounds are recorded in Table I.

[3] = system: GABA uptake; details: oral; Yunger et al., J. Pharm. Exp. Ther. 1984, 228, 109; cited from earlier work

| Compound | IC50 [2] [nM] | orally active inhibition of GABA uptake [3] | other results |
| --- | --- | --- | --- |
| O=C(O)C1CCCNC1 (centres unmarked) [3-piperidinecarboxylic acid] |  |  | inhibition of GABA uptake [1]: potent inhibitor of GABA uptake |
| O=C(O)[C@@H]1CCCN(CCOCCN2c3ccccc3CCc3ccccc32)C1 [Example 1, (R)-N-(2-(2-(10,11-Dihydro-5H-dibenz[b,f]azepin-5-yl)ethoxy)ethyl)-3-piperidinecarboxylic acid hydrochloride] | 222 |  |  |
| O=C(O)[C@@H]1CCCN(CCOCCN2c3ccccc3Sc3ccccc32)C1 [Example 2a, (R)-N-(2-(2-(10H-Phenothiazin-10-yl)ethoxy)ethyl)-3-piperidinecarboxylic acid hydrochloride] | 306 |  |  |
| O=C(O)[C@@H]1CCCN(CCOCCN2c3ccccc3Sc3ccc(Cl)cc32)C1 [Example 2c, (R)-N-(2-(2-(2-Chloro-10H-phenothiazin-10-yl)ethoxy)ethyl)-3-piperidinecarboxylic acid hydrochloride] | 119 |  |  |
| O=C(O)[C@@H]1CCCN(CCOCC=C2c3ccccc3CCc3ccccc32)C1 [Example 3, (R)-N-(2-(2-(10,11-Dihydro-5H-dibenzo[a,d]cyclohepten-5-ylidene)ethoxy)ethyl)-3-piperidinecarboxylic acid hydrochloride] | 754 |  |  |
| O=C(O)[C@@H]1CCCN(CCCOCC=C2c3ccccc3CCc3ccccc32)C1 [Example 5, (R)-N-(3-(2-(10,11-Dihydro-5H-dibenzo[a,d]cyclohepten-5-ylidene)ethoxy)-1-propyl)-3-piperidinecarboxylic acid hydrochloride] | 900 |  |  |
| O=C(O)[C@@H]1CCCN(CCON=C2c3ccccc3CCc3ccccc32)C1 [Example 7, (R)-N-(2-(((10,11-Dihydro-5H-dibenzo[a,d]cyclohepten-5-ylidene)amino)oxy)ethyl)-3-piperidinecarboxylic acid hydrochloride] | 1130 |  |  |
| O=C(O)C1CCCN(CCC=C(c2ccccc2)c2ccccc2)C1 (centres unmarked) [SK&F 89976A, N-(4,4-diphenyl-3-buten-1-yl)nipecotic acid] |  | orally active inhibitors of GABA uptake |  |
| O=C(O)C1=CCCN(CCC=C(c2ccccc2)c2ccccc2)C1 [SK&F 100330A, N-(4,4-diphenyl-3-buten-1-yl)guvacine] |  | orally active inhibitors of GABA uptake |  |
| O=C(O)CC1CCN(CCC=C(c2ccccc2)c2ccccc2)C1 (stereo not drawn) [SK&F 100561, N-(4,4-diphenyl-3-buten-1-yl)-homo-β-proline] |  | orally active inhibitors of GABA uptake |  |
| O=C(O)C1CCCN(CCC=C(c2ccccc2)c2cccs2)C1 (centres unmarked) [SK&F 100604J, N-(4-phenyl-4-(2-thienyl)-3-buten-1-yl)nipecotic acid] |  | orally active inhibitors of GABA uptake |  |
